# Patent US12275729B2 (Merck Sharp & Dohme LLC, priority 2017, dated 2025)
# Biological target: T1, IDO1 (Homo sapiens, UniProt P14902)
# Experiment: IDO1 Cellular Assay in HeLa Cells Stimulated with IFNγ
# Type: cell-based
# Conditions: about 48 hours, read-out: Hela IC50
# T1 sequence (P14902 whole entry): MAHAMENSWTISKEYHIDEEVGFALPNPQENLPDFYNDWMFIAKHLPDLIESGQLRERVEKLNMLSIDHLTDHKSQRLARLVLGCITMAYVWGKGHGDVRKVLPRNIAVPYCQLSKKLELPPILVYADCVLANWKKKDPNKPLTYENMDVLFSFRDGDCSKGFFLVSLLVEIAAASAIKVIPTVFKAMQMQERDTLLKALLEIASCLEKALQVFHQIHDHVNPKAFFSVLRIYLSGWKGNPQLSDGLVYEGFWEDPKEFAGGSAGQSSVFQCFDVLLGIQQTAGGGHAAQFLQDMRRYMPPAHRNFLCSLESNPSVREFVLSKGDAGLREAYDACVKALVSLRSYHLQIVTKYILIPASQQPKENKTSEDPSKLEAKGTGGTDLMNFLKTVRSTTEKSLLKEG
row,Structure (SMILES),IC50
1,"O=C([C@H]1CCCCO1)N1CCCc2cc(C3(C(=O)Nc4ccc(F)cc4)CCC3)ccc21 (single isomer, unassigned) [Example 106]",1.2 nM
2,"COC(=O)N1CCCc2nc(C3(NC(=O)c4ccc(F)cc4)CC3)ccc21 [Example 215, methyl 6-{1-[(4-fluorobenzene-1-carbonyl)amino]cyclopropyl}-3,4-dihydro-1,5-naphthyridine-1(2H)-carboxylate]",57 nM
3,"CC(NC(=O)c1ccc(F)cc1)c1ccc2c(n1)CCCN2C(=O)C1CCOCC1 (stereo in doubt) [Example 146, 4-fluoro-N-{(1R)-1-[5-(oxane-4-carbonyl)-5,6,7,8-tetrahydro-1,5-naphthyridin-2-yl]ethyl}benzamide]",35.5 nM
4,"Cc1nccc(N2CCCc3nc(C4(NC(=O)c5ccc(F)c(F)c5)CC4)ccc32)n1 [Example 302, 3,4-difluoro-N-(1-(5-(2-methylpyrimidin-4-yl)-5,6,7,8-tetrahydro-1,5-naphthyridin-2-yl)cyclopropyl)benzamide]",2.92 nM
5,"COc1ccc(C(=O)NCc2ccc3c(c2)CCCN3C(=O)CC(C)C)cc1 [Example 6, 4-methoxy-N-{[1-(3-methylbutanoyl)-1,2,3,4-tetrahydroquinolin-6-yl]methyl}benzamide]",56.4 nM
6,"O=C(Nc1ccc(F)cc1)C(c1ccc2c(n1)CCCN2C(=O)C1CC1)C1CC1 (stereo not drawn) [Example 260, 2-(5-(cyclopropanecarbonyl)-5,6,7,8-tetrahydro-1,5-naphthyridin-2-yl)-2-cyclopropyl-N-(4-fluorophenyl)acetamide]",34 nM
7,"CC(C)(C(=O)Nc1ccc(F)cc1)c1ccc2c(n1)CCCN2C(=O)C1CC1 [Example 184, 2-[5-(cyclopropanecarbonyl)-5,6,7,8-tetrahydro-1,5-naphthyridin-2-yl]-N-(4-fluorophenyl)-2-methylpropanamide]",10.8 nM
8,"COC(=O)N1CCCc2nc(C3(NC(=O)c4ccc(Cl)cc4)CCC3)ccc21 [Example 219, methyl 6-{1-[(4-chlorobenzene-1-carbonyl)amino]cyclobutyl}-3,4-dihydro-1,5-naphthyridine-1(2H)-carboxylate]",9.9 nM
9,"C[C@H](C(=O)Nc1ccc(F)cc1)c1ccc2c(c1)CCCN2C(=O)CCOC(C)(C)C [Example 70, (2S)-2-[1-(3-tert-butoxypropanoyl)-1,2,3,4-tetrahydroquinolin-6-yl]-N-(4-fluorophenyl)propanamide]",3380 nM
10,"CC(NC(=O)c1ccc(F)cc1)c1ccc2c(n1)C(=O)CCN2C(=O)C1CC1 (stereo not drawn) [Example 192, N-(1-(5-(cyclopropanecarbonyl)-8-oxo-5,6,7,8-tetrahydro-1,5-naphthyridin-2-yl)ethyl)-4-fluorobenzamide]",825 nM
11,"C[C@@H](NC(=O)c1ccc(F)cc1)c1ccc2c(n1)CCCN2C(=O)[C@H]1CC1(F)F (single isomer, unassigned) [Example 134]",24 nM
12,"CC(NC(=O)c1ccc(F)cc1)c1ccc2c(n1)C(O)CCN2C(=O)C1CC1 (single isomer, unassigned) [Example 197, N-(1-(5-(cyclopropanecarbonyl)-8-hydroxy-5,6,7,8-tetrahydro-1,5-naphthyridin-2-yl)ethyl)-4-fluorobenzamide]",290 nM
13,"O=C(Nc1ccc(F)cc1)C(c1ccc2c(n1)CCCN2C(=O)C1CC1)C1CC1 (single isomer, unassigned) [Example 262, 2-(5-(cyclopropanecarbonyl)-5,6,7,8-tetrahydro-1,5-naphthyridin-2-yl)-2-cyclopropyl-N-(4-fluorophenyl)acetamide]",11 nM
14,"CC(C)(C(=O)Nc1ccc(F)cc1)c1ccc2c(n1)CCCN2C(=O)C1CCOCC1 [Example 186, N-(4-fluorophenyl)-2-methyl-2-[5-(oxane-4-carbonyl)-5,6,7,8-tetrahydro-1,5-naphthyridin-2-yl]propanamide]",5.9 nM

# Now from value to compound:
row,IC50,Structure (SMILES)
1,1.34 nM,"CC(C(=O)Nc1ccc(Cl)cc1)c1ccc2c(c1)CC(F)CN2C(=O)c1cccc(Cl)c1 (single isomer, unassigned) [Example 257, 2-(1-(3-chlorobenzoyl)-3-fluoro-1,2,3,4-tetrahydroquinolin-6-yl)-N-(4-chlorophenyl)propanamide]"
2,7 nM,"C[C@H](C(=O)Nc1ccc(F)cc1)c1ccc2c(c1)CCCN2C(=O)CC(C)(C)C [Example 90, (2S)-2-[1-(3,3-dimethylbutanoyl)-1,2,3,4-tetrahydroquinolin-6-yl]-N-(4-fluorophenyl)propanamide]"
3,236 nM,"CC(NC(=O)c1ccc(F)cc1)c1ccc2c(c1)CCCN2C(CO)c1cccc(Cl)c1 (single isomer, unassigned) [Example 94]"
4,10.8 nM,"COC(=O)N1CCCc2nc(C(C)C(=O)Nc3ccc(Cl)cc3)ccc21 (stereo not drawn) [Example 223, methyl 6-{1-[(4-chlorophenyl)amino]-1-oxopropan-2-yl}-3,4-dihydro-1,5-naphthyridine-1(2H)-carboxylate]"
5,45 nM,"Cc1cc(C(=O)NCc2ccc3c(c2)CCCN3C(=O)c2cccc(Cl)c2)no1 [Example 22, N-{[1-(3-chlorobenzene-1-carbonyl)-1,2,3,4-tetrahydroquinolin-6-yl]methyl}-5-methyl-1,2-oxazole-3-carboxamide]"
6,9.4 nM,"C[C@H](C(=O)Nc1ccc(F)cn1)c1ccc2c(c1)CCCN2C(=O)C1CC1 (single isomer, unassigned) [Example 61]"
7,51.4 nM,"O=C(c1cc(C(F)(F)F)n[nH]1)N1CCCc2cc(C3(C(=O)Nc4ccc(F)cc4)CCC3)ccc21 [Example 116, N-(4-fluorophenyl)-1-{1-[3-(trifluoromethyl)-1H-pyrazole-5-carbonyl]-1,2,3,4-tetrahydroquinolin-6-yl}cyclobutane-1-carboxamide]"
8,6.9 nM,"CC(C)CC(=O)N1CCCc2cc(CC(=O)Nc3ccc(Cl)cc3)ccc21 [Example 35, N-(4-chlorophenyl)-2-(1-(3-methylbutanoyl)-1,2,3,4-tetrahydroquinolin-6-yl)acetamide]"
9,59.6 nM,"Cc1cc(C(=O)NCc2ccc3c(c2)CCCN3C(=O)c2cccc(Cl)c2)on1 [Example 20, N-{[1-(3-chlorobenzene-1-carbonyl)-1,2,3,4-tetrahydroquinolin-6-yl]methyl}-3-methyl-1,2-oxazole-5-carboxamide]"
10,34.9 nM,"CC(C)C(C(=O)Nc1ccc(F)cc1)c1ccc2c(n1)CCCN2C(=O)C1CC1 (stereo not drawn) [Example 263, 2-(5-(cyclopropanecarbonyl)-5,6,7,8-tetrahydro-1,5-naphthyridin-2-yl)-N-(4-fluorophenyl)-3-methylbutanamide]"
11,702 nM,"CC(C)CC(=O)NCc1ccc2c(c1)CCCN2C(=O)c1cccc(Cl)c1 [Example 17, N-{[1-(3-chlorobenzene-1-carbonyl)-1,2,3.4-tetrahydroquinolin-6-yl]methyl}-3-methylbutanamide]"
12,1.2 nM,"CC(NC(=O)c1ccc(F)cc1)c1ccc2c(n1)CCCN2C(=O)c1cccc(C(F)(F)F)c1 (stereo not drawn) [Example 284, 2-(1-(4-fluorobenzamido)ethyl)-5-(3-(trifluoromethyl)benzoyl)-5,6,7,8-tetrahydro-1,5-naphthyridin-1-ium 2,2,2-trifluoroacetate]"

# Same assay, conditions: read-out: Hela IC50
row,IC50,Structure (SMILES)
1,3.38 nM,"CC(NC(=O)c1ccc(Cl)cc1)c1ccc2c(n1)CCCN2c1cccc(C2CC2)n1 (stereo not drawn) [Example 351, 4-chloro-N-(1-(5-(6-cyclopropylpyridin-2-yl)-5,6,7,8-tetrahydro-1,5-naphthyridin-2-yl)ethyl)benzamide]"
2,45.3 nM,"CC(NC(=O)c1ccc(F)cc1)c1ccc2c(n1)CCCN2C(=O)OCC1CCO1 (stereo not drawn) [Example 313, oxetan-2-ylmethyl 6-(1-(4-fluorobenzamido)ethyl)-3,4-dihydro-1,5-naphthyridine-1(2H)-carboxylate]"
3,0.79 nM,"O=C(Nc1ccc(F)cc1)C1(c2ccc3c(n2)CCCN3c2ccnc(C(F)(F)F)n2)CC2(CC2)C1 [Example 416, N-(4-fluorophenyl)-5-(5-(2-(trifluoromethyl)pyrimidin-4-yl)-5,6,7,8-tetrahydro-1,5-naphthyridin-2-yl)spiro[2.3]hexane-5-carboxamide]"
4,161 nM,"COc1ccc(C(=O)NC(C)c2ccc3c(n2)CCCN3C(=O)OC2CC2)cc1 (stereo not drawn) [Example 338, cyclopropyl 6-(1-(4-methoxybenzamido)ethyl)-3,4-dihydro-1,5-naphthyridine-1(2H)-carboxylate]"

# Biological target: T1, IDO1
# Experiment: IDO1 Human Whole Blood Assay
# Type: cell-based
# Parameters: Human whole blood was drawn in sodium heparin coated tubes from healthy internal donors; from tissue; host or cells: human whole blood from healthy donors, stimulated with LPS and IFNγ
# Conditions: LPS and IFNγ stimulated
# Procedure: IDO1 Human Whole Blood Assay
# Compounds to be tested were serially diluted in ten 3-fold steps in DMSO starting from 10 mM. […] LPS and IFNγ was prepared in RPMI to a 10× of final conc. (1000 ng/mL), final concentration is 100 ng/mL.
# Human whole blood was drawn in sodium heparin coated tubes from healthy internal donors. 240 μL of blood was transferred to each of the wells of a v-bottom 96 well plate. 30 μL of compound was transferred from intermediate dilution plate, and incubated for 15 min. 30 μL from stimulants was then transferred to blood and mixed thoroughly.
# On day 2 isotope labeled standard of kynurenine and tryptophan was made in water at 1Ox concentration and 30 μL was added to the blood at […] final concentration. The assay plates were centrifuged at 300×G for 10 min with no brake to separate plasma from red blood cells. 60 μL of plasma samples was removed without disturbing red blood cells. Plasma was diluted with RPMI in 1:1 ratio and proteins were precipitated out with two volume of Acetonitrile. The plates were centrifuged at 4000×G for 60 min. 20 μL of supernatant was carefully transferred to a 384 well plate contain 40 μL of 0.1% formic acid in water and analyzed by LC/MS/MS.
# LC/MS/MS analyses were performed using Thermo Fisher's LX4-TSQ Quantum Ultra system. This system consists of four Agilent binary high-performance liquid chromatography (HPLC) pumps and a TSQ Quantum Ultra triple quadrupole MS/MS instrument. For each sample, 5 μL were injected onto an Atlantis T3 column (2.1 mm×150 mm, […] particle size) from Waters. The mobile phase gradient pumped at 0.8 mL/min was used to elute the analytes from the column at 25° C. […] Mobile phase A consisted of 0.1% formic acid in water. Mobile phase B consisted of 0.1% of formic acid in acetonitrile. Data was acquired in positive mode using a HESI interface. The operational parameters for the TSQ Quantum Ultra instrument were a spray voltage of 4000 V, capillary temperature of 380° C., vaporizer temperature 400° C., shealth gas 60 arbitrary units, Aux gas 20 arbitrary units, tube lens 85 and collision gas 1.2 mTorr. […] The peak area was integrated by Xcalibur Quan software. The ratios between the kynurenine generated in the reaction and 2D6-Kynurenine spiked-in internal standard were used to generate percentage inhibition and IC50 values.
row,IC50,Structure (SMILES)
1,18 nM,"CC(NC(=O)c1ccc(Cl)cc1)c1ccc2c(n1)CCCN2c1cccc(C2CC2)n1 (stereo not drawn) [Example 351, 4-chloro-N-(1-(5-(6-cyclopropylpyridin-2-yl)-5,6,7,8-tetrahydro-1,5-naphthyridin-2-yl)ethyl)benzamide]"
2,12 nM,"O=C([C@H]1CCCCO1)N1CCCc2cc(C3(C(=O)Nc4ccc(F)cc4)CCC3)ccc21 (single isomer, unassigned) [Example 106]"
3,35 nM,"CC(C(=O)Nc1ccc(Cl)cc1)c1ccc2c(c1)CC(F)CN2C(=O)c1cccc(Cl)c1 (single isomer, unassigned) [Example 257, 2-(1-(3-chlorobenzoyl)-3-fluoro-1,2,3,4-tetrahydroquinolin-6-yl)-N-(4-chlorophenyl)propanamide]"
